Experimental data taken from US20230124720A1, “APPLICATION OF ACRIDINEDIONE COMPOUND IN PREPARATION OF ANTI-DIABETIC DRUGS” (THE FOURTH MILITARY MEDICAL UNIVERSITY, priority 2020, published 2023).

How the values were obtained:
STZ-induced T2DM rats [1] = assay: Postprandial blood glucose in STZ-induced T2DM rats; assay type: in vivo, rat; settings: for reduction in blood glucose compared to the TD group: end of administration
Method: (§1) 150 male SD rats, housed in cages in a clean constant temperature (23±2° C.) and humidity (55±10%) animal house, were manually adjusted on a daily 12 h/12 h diurnal light cycle with free access to water. After 3 days of adaptive feeding, 150 rats were randomly divided into normal and model groups. The normal (Con, n=15) group of rats remained on raw chow and the model group (n=135) of rats were given high fat high sugar chow. All rats were fed twice daily and the amount of feed was adjusted as needed to ensure adequate feed. After 8 weeks of group feeding, the model group rats were given an intraperitoneal injection of 25 mg/kg STZ solution with a 12 h fast prior to injection. After injection, feeding was continued as in the original method, blood was taken from the tail vein at 72 h for blood glucose measurement, and rats with fasting blood glucose levels ≥11.1 mmol/L on different days were screened for successful artificial induction of T2DM and administered in groups for the next experiment. 135 rats with successful modeling were randomly divided into 9 groups: […] (2) 0.01 mg/kg ADD-16 administration group (ADD I, n=15): daily administration of 0.01 mg/kg ADD-16 solution by gavage; (3) 0.1 mg/kg ADD-16 administration group (ADD II, n=15): daily administration of a 0.1 mg/kg ADD-16 solution by gavage; (4) 1 mg/kg ADD-16 administration group (ADD III, n=15): daily administration of a 1 mg/kg ADD-16 solution by gavage; (5) 3 mg/kg ADD-16 administration group (ADD IV, n=15): daily administration of a 3 mg/kg ADD-16 solution by gavage; (6) 10 mg/kg ADD-16 administration group (ADD V, n=15): daily administration of a 10 mg/kg ADD-16 solution by gavage; (7) 50 mg/kg ADD-16 administration group (ADD VI, n=15): daily administration of a 50 mg/kg ADD-16 solution by gavage; […] (9) Sitagliptin control group (ST, n=15): daily administration of a 6 mg/kg sitagliptin solution by gavage. […] Relevant indicators of lipid metabolism were measured after the end of the study.

STZ-induced T2DM rats [2] = assay: Insulin tolerance test (ITT) in T2DM rats; assay type: in vivo, rat
Method: as §1, with “study. […] After the 120 min blood glucose value determination was completed, the diet was resumed. In the test, the condition of the rats was observed, and when abnormalities occurred, the experiment was stopped in time and a glucose solution was given by gavage to prevent death due to hypoglycemia.” for “study.”

MIN6 cells = assay: Glucose-stimulated insulin secretion in MIN6 cells (GSIS); assay type: cell-based, mouse
Method: MIN6 cells were seeded in a 24-well plate at an appropriate concentration, and after continued culture until cell confluence exceeded 80%, administration was carried out in the following groups: normal control group (Con), ADD group (ADD-16 was administered at a concentration of 100 μmol/L, 30 μmol/L, 10 μmol/L, 3 μmol/L, 1 μmol/L, 0.3 μmol/L, respectively), TAK875 group (administered at a concentration of 10 μmol/L, 3 μmol/L, 1 μmol/L, respectively), with 6 replicates per group. Incubation was continued for 24 h after group dosing, media was aspirated and gently rinsed 2 times with a sugar-free KRB buffer. After rinsing, the sugar-free KRB buffer was added and incubated at 37° C. for 10 min. At the end of the incubation, the buffer was aspirated and each well was exhausted as much as possible. Each group was dosed with 16.7 mmol/L glucose in a KRB buffer and incubated at 37° C. for 1 hour. All media in the wells was aspirated after 1 h, centrifuged at 2000 rmp/min for 20 min, and the supernatant was collected and stored at −20° C. The insulin content was measured for each group following the instructions of the mouse insulinase ELISA assay kit.
Insulinase ELISA assay: the supernatant of each set of media was taken and processed according to the procedure of Table 1:
The final mixture was mixed well with shaking and the OD was read on a microplate reader at 450 nm. The insulin content of each group was calculated.

[3] = ADD IV group, 3 mg/kg daily by gavage
[4] = ADD V group, 10 mg/kg daily by gavage
[5] = ADD VI group, 50 mg/kg daily by gavage

Q: With `CC1(C)CC(=O)C2=C(C1)NC1=C(C(=O)CC(C)(C)C1)C2c1ccc(OCc2ccc(C(=O)O)cc2)c(Br)c1` [ADD-16] as the compound, how does the “reduction in blood glucose compared to the TD group” value (“reduction in blood glucose” for short) (STZ-induced T2DM rats [1]; [3]) read?
A: The value was 55.0%.

Q: What about the “reduction in blood glucose” value (STZ-induced T2DM rats [1]; [4]) of the same compound?
A: Its value is 56.8%.

Q: What about the “reduction in blood glucose” value (STZ-induced T2DM rats [1]; [5]) of the same compound?
A: Its value is 56.2%.

Q: And the “hypoglycemic effect (in words)” value (STZ-induced T2DM rats [1]; T2DM rats, 3, 10, 50 mg/kg)?
A: Its value is “significant hypoglycemic effect”.

Q: What about the “decrease of ITT AUC compared to the TD group” value (“decrease of ITT AUC” for short) (STZ-induced T2DM rats [2]; [3]) of the same compound?
A: Its value is 46.5%.

Q: And the “decrease of ITT AUC” value (STZ-induced T2DM rats [2]; [4])?
A: Its value is 43.7%.

Q: What about the “decrease of ITT AUC” value (STZ-induced T2DM rats [2]; [5]) of the same compound?
A: The value was 45.2%.

Q: What about the “insulin secretion compared to the Con group (in words)” value (MIN6 cells; 100 μmol/L, 24 h) of the same compound?
A: Its value is “decreased insulin secretion”.

Q: What about the “glucose-stimulated insulin secretion (in words)” value (MIN6 cells; 24 h, 16.7 mmol/L glucose, concentration dependent) of the same compound?
A: The value was “promote glucose-stimulated insulin secretion”.

Q: And the “insulinotropic effect compared with TAK875 (in words)” value (MIN6 cells; same concentrations)?
A: The value was “significantly better than TAK875”.
